Experiment [1] addresses T1, NAD-dependent protein deacetylase sirtuin-2 (Homo sapiens, UniProt Q8IXJ6).
T1 sequence (Q8IXJ6 whole entry): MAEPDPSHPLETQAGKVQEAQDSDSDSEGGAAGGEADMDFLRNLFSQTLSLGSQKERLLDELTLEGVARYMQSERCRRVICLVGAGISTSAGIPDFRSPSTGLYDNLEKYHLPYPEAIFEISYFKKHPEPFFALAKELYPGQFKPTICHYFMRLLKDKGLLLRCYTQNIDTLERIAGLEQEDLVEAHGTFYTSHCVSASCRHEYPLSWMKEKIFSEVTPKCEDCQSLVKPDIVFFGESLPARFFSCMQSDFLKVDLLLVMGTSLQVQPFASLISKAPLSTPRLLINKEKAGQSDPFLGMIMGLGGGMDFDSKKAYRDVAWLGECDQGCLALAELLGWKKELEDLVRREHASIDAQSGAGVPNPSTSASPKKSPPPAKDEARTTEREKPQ
Description: Inhibition of human Sirt2.

A short description of experiment [2]: Inhibition of HDAC by fluorescence assay.
The target of experiment [3] is T2, Histone-lysine N-methyltransferase EHMT2 (Homo sapiens, UniProt Q96KQ7).
T2 sequence (Q96KQ7 whole entry): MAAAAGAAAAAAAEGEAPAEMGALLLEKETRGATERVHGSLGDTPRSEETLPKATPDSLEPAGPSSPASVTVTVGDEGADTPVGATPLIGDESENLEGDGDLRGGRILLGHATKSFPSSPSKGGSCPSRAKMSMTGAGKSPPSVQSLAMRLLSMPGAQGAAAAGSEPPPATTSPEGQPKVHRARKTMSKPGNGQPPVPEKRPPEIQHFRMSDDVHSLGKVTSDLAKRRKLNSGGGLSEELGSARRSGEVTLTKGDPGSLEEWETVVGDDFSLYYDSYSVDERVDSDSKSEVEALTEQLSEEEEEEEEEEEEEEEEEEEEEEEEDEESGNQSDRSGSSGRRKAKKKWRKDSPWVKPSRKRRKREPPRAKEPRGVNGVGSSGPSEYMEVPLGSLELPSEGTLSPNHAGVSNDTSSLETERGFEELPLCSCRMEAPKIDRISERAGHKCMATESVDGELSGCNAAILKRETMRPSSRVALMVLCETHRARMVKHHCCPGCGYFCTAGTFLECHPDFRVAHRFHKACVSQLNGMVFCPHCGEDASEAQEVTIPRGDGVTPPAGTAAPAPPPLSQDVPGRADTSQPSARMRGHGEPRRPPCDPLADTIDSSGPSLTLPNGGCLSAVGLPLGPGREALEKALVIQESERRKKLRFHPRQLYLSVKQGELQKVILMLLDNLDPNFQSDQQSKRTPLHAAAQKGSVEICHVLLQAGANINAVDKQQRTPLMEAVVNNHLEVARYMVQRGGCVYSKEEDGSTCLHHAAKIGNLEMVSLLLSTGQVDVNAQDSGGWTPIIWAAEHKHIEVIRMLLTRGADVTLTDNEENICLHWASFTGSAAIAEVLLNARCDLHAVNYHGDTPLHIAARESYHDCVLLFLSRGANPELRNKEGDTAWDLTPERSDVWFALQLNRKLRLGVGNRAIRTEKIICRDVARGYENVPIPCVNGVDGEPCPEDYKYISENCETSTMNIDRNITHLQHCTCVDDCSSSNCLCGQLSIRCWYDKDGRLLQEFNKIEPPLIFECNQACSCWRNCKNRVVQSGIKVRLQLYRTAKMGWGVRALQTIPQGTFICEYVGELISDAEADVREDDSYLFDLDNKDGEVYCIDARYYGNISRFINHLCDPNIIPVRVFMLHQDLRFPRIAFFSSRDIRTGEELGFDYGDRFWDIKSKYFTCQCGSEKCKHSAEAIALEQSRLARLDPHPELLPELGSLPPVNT
Description: Inhibition of lysine methyltransferase G9a.

Here are results for 3 molecules from ChEMBL document CHEMBL1795291, “Computer- and structure-based lead design for epigenetic targets” (Bioorg Med Chem, 2011).

In general, IC50 refers to the concentration at which inhibition is half-maximal. A low value points to inhibition by little substance.

With `O=C1NC(=S)NC(=O)C1=Cc1ccc(-c2ccccc2)cc1`, the IC50 in experiment [1] is 8.7 µM. For `CCc1nnc(NS(=O)(=O)c2ccc(N/C=C3\Sc4ccccc4C3=O)cc2)s1`, inhibition in experiment [2] was half-maximal at 4.3 µM (IC50). `COc1ccc(C(=O)Oc2ccc(CCn3c(NC(=O)c4ccc(C(F)(F)F)cc4)nc4cc(C(=O)O)ccc43)cc2)cc1`: in experiment [3], the IC50 was 0.106 µM.
